From patent US20210341371A1, “CELL SCANNING TECHNOLOGIES AND METHODS OF USE THEREOF” (priority 2018, published 2021)
Where two headings read alike, the source gives them in different places.

Experiments:
[1] = tested on: RBC membrane permeability; format: cell-based, human
Text: The present disclosure also provides technologies for assessing (e.g., identifying and/or characterizing) agents and/or other compositions that modulate RBC membrane permeability (collectively, “RBC Permeability Modulating Agents”). Provided technologies may be useful for identifying RBC Permeability Modulating Agents. In some instances, a RBC Permeability Modulating Agent is expected to effect the health state of a subject exposed it (e.g., a beneficial or adverse effect). For example, provided methods allow for the evaluation of agents and/or compositions intended for use in humans (e.g., a drug candidate or prosthetic material).
In some embodiments, a sample is analyzed within a particular time period after being subjected to an agent or composition (e.g., within about 5 minutes, about 10 minutes, about 30 minutes, about 1 hour, about 2 hours, or about 5 hours). In some embodiments, a method further comprises evaluating dose response of an agent or composition (e.g., by subjecting each of a plurality of samples to varying concentrations of agent or composition).
(§1) A sample of whole blood from a healthy volunteer was drawn into ACD anticoagulant. The unwashed sample was divided into aliquots and was analyzed using the Prior Shine Technology and/or the Provided Cell Scanning Technologies. The following outputs were obtained from the sample:
“Pk0” coincided with the minimum absolute osmotic pressure (e.g., most hypotonic pressure) to which a cell can be subjected without loss of integrity. Pk0 can be identified by determining the right-most extent of the intact cell population in the cell-by-cell graph, i.e., the point of osmolality immediately preceding the point at which the cells ruptured. In FIG. 1a, this minimum pressure is the “peak” 106. […]
Using the technologies described herein, a cell-by-cell analysis was converted into a plot of percent change of cell volume vs. osmolality (“Cell Scan Plot”) by converting the individual peak voltage into a cell volume, then calculating a mean volume for each 100 cells, and plotting the means to generate the Cell Scan Plot. The percentage change of cell volume at each osmolality is calculated and compared to the mean cell volume of an isotonic cell (e.g., FIG. 1b). […]
The Fluid Flux Curve (FFC) was determined by taking the first order derivative (with respect to osmolality) of Cell Scan Plot (FIG. 1c). […]
Using the technologies provided herein, agents were tested for potential adverse in vivo effects prior to use in humans and/or animals. For example, a blood sample from a healthy volunteer was contacted with amphotericin B (0.5 μg/mL) and was analyzed using the provided cell scanning technologies. […]

[2] = tested on: RBC membrane permeability; assay: Cell scan of blood samples from patients/subjects (RBC membrane permeability parameters), including effect of medication taken; format: in vivo, human; conditions: for effect of medication on the output of the cell scanning technologies: medication the subject has taken or is taking
Text: The present disclosure encompasses the recognition that one or more medications that the subject has taken or is taking may affect the output of the cell scanning technologies described herein. The effect of a particular medication on the output of the cell scanning technologies may vary by medication, e.g., vary in magnitude and/or in length of effect, and in some cases, a particular medication may have no effect at all. […] Accordingly, in some embodiments, provided methods further comprise determining whether or not the subject has taken or is taking a particular medication. In some embodiments, if the subject has taken a medication known to have a particular effect on the output of the cell scanning technologies, then a determined RBC membrane permeability parameter should be compared to a suitable reference control parameter (e.g., a reference control parameter determined in the presence or absence of the particular medication). In some embodiments, if the subject has taken a medication known to have a particular effect on the output of the cell scanning technologies, then further diagnostic assessment is warranted.
as §1
“Pk0” coincided with the minimum absolute osmotic pressure (e.g., most hypotonic pressure) to which a cell can be subjected without loss of integrity. Pk0 can be identified by determining the right-most extent of the intact cell population in the cell-by-cell graph, i.e., the point of osmolality immediately preceding the point at which the cells ruptured. In FIG. 1a, this minimum pressure is the “peak” 106. As the osmolality of the surrounding solution was reduced, the red blood cell ruptures and forms a ghost cell, which releases its contents into the surrounding medium.
Using the technologies described herein, a cell-by-cell analysis was converted into a plot of percent change of cell volume vs. osmolality (“Cell Scan Plot”) by converting the individual peak voltage into a cell volume, then calculating a mean volume for each 100 cells, and plotting the means to generate the Cell Scan Plot. The percentage change of cell volume at each osmolality is calculated and compared to the mean cell volume of an isotonic cell (e.g., FIG. 1b). On such a plot, Pk0 (see 101) is the osmotic pressure at which the net water flow is zero (i.e., when a cell achieved its maximum volume, i.e., when it is a perfect sphere). As described herein, in some embodiments, Pk0 can be used as an indicator of an individual's health status.
The Fluid Flux Curve (FFC) was determined by taking the first order derivative (with respect to osmolality) of Cell Scan Plot (FIG. 1c). In an FFC, Pk0 occurred at the zero crossing (101), which was where the slope of the Cell Scan Plot changes from positive to negative. A positive value on the FFC represented a net flow of fluid into the cell, while negative rates represented a net flow of fluid out of the cell. In the FFC, the positive peak 102 and negative peak 103 corresponded to the maximum and minimum, respectively, on the FFC. As used herein, “Pymax” is the magnitude of fluid flux at the maximum, and “Pymin” is the magnitude of fluid flux at the minimum.
Table 7 is organized by indication and reports the mean values for various parameters tested.
A person was tested using cell scanning technologies described herein at a check-up 2 months after being diagnosed with grand mal epilepsy. The results were within normal limits (as they were on a prior visit), except for the Pk0 which had shifted approx. 10 mOsm/kg to 136 mOsm/kg. Such a change may be attributed to their prescribed medication, phenytoin.

[Cl][Hg][Cl] [HgCl2]
flow of water across the membrane ([1]; unwashed whole blood from a healthy volunteer treated with 65 μM HgCl2): no flow of water across the membrane was detected
RBC membrane permeability ([1]; unwashed whole blood from a healthy volunteer treated with 65 μM HgCl2, monitored over time): essentially eliminated

C[C@@H]1[C@H](O)[C@@H](C)/C=C/C=C/C=C/C=C/C=C/C=C/C=C/[C@H](O[C@@H]2O[C@H](C)[C@@H](O)[C@H](N)[C@@H]2O)C[C@@H]2O[C@](O)(C[C@@H](O)C[C@@H](O)[C@H](O)CC[C@@H](O)C[C@@H](O)CC(=O)O[C@H]1C)C[C@H](O)[C@H]2C(=O)O [amphotericin B]
Pk0 ([1]; blood sample from a healthy volunteer contacted with amphotericin B 0.5 μg/mL, normal Pk0 approx. 142 mOsm/kg): 85 mOsm/kg
effect of medication on the output of the cell scanning technologies [2]: have an effect on the output

OCCS [beta-mercaptoethanol]
effect of HgCl2 on RBC membrane permeability after addition of chelator [1]: the effect was reversed and RBC membrane permeability was restored

CC(C)(S)[C@@H](N)C(=O)O [penicillamine]
effect of medication on the output of the cell scanning technologies [2]: have an effect on the output

CCC1(c2ccccc2)C(=O)NC(=O)NC1=O [phenobarbitone]
effect of medication on the output of the cell scanning technologies [2]: have an effect on the output

O=C1NC(=O)C(c2ccccc2)(c2ccccc2)N1 [phenytoin]
shift of Pk0 versus prior visit ([2]; Patient X on prescribed phenytoin, change may be attributed to the medication): approx. 10 mOsm/kg
Pk0 ([2]; Patient X, person with grand mal epilepsy, 2 months after diagnosis, on prescribed phenytoin, change may be attributed to the medication): 136 mOsm/kg
effect of medication on the output of the cell scanning technologies [2]: have an effect on the output

CC(=O)CC(c1ccccc1)c1c(O)c2ccccc2oc1=O (stereo not drawn) [warfarin]
P0 (TOTAL) ([2]; mean value for patients with pulmonary embolus on warfarin, all patients (N=4)): 149.4
P0 (died) ([2]; mean value for patients with pulmonary embolus on warfarin, subset who died (N=1)): 157
